Assay results: PubChem BioAssay AID328 (DTP/NCI, 2004)
Where “and” joins values, the source holds several entries; their conditions need not be identical. Identical values can stand only once. Inconclusive results and toxic doses are left out.

Test system: BDF1 mice, P388 leukemia ip, median survival T/C
Assay: NCI In Vivo Anticancer Drug Screen. Data for tumor model P388 Leukemia (intraperitoneal) in B6D2F1 (BDF1) mice
Settings: endpoint: median survival time, higher = longer survival
Procedure, shortened: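 Antitumour effect was judged in vivo: survival in drug-treated mice, normalised to that of vehicle-dosed controls, gives the reported T/C.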

[1] = dose: 100.0 mg/kg/injection, schedule: Q04DX003 (ip), vehicle: Klucel (hydroxypropylcellulose) (HPC)
[2] = dose: 200.0 mg/kg/injection, schedule: Q04DX003 (ip), vehicle: Klucel (hydroxypropylcellulose) (HPC)
[3] = dose: 400.0 mg/kg/injection, schedule: Q04DX003 (ip), vehicle: Klucel (hydroxypropylcellulose) (HPC)
[4] = dose: 100.0 mg/kg/injection, schedule: Q04DX003 (ip), vehicle: saline
[5] = dose: 12.5 mg/kg/injection, schedule: Q01DX009 (ip), vehicle: saline
[6] = dose: 25.0 mg/kg/injection, schedule: Q01DX009 (ip), vehicle: saline
[7] = dose: 50.0 mg/kg/injection, schedule: Q01DX009 (ip), vehicle: saline with Tween-80
[8] = dose: 100.0 mg/kg/injection, schedule: Q04DX003 (ip), vehicle: saline with Tween-80
[9] = dose: 100.0 mg/kg/injection, schedule: Q01DX009 (ip), vehicle: saline with Tween-80
[10] = dose: 200.0 mg/kg/injection, schedule: Q01DX009 (ip), vehicle: saline with Tween-80
[11] = dose: 400.0 mg/kg/injection, schedule: Q01DX009 (ip), vehicle: saline with Tween-80
[12] = dose: 200.0 mg/kg/injection, schedule: Q04DX003 (ip), vehicle: saline with Tween-80
[13] = dose: 50.0 mg/kg/injection, schedule: Q01DX009 (ip), vehicle: saline
[14] = dose: 100.0 mg/kg/injection, schedule: Q01DX009 (ip), vehicle: saline
[15] = dose: 200.0 mg/kg/injection, schedule: Q04DX003 (ip), vehicle: saline

## CCOC(=O)c1[nH]c2c(c1CC(CC)[N+](=O)[O-])CCCC2 (stereo not drawn)
[1]
  T/C: 95 % of control
[2]
  T/C: 100 % of control
[3]
  T/C: 91 % of control

## CN(C)P(N)(N)=O
[1]
  T/C: 100 % of control
[2]
  T/C: 100 % of control
[3]
  T/C: 95 % of control

## O=c1[nH]c2cc(Cl)ccc2c(CCl)c1Cl
dose: 25.0 mg/kg/injection, schedule: Q04DX003 (ip), vehicle: saline
  T/C: 109 % of control
dose: 50.0 mg/kg/injection, schedule: Q04DX003 (ip), vehicle: saline
  T/C: 104 % of control
dose: 56.25 mg/kg/injection, schedule: Q01DX001 (ip), vehicle: saline with Tween-80
  T/C: 109 % of control
[4]
  T/C: 100 % of control
dose: 112.5 mg/kg/injection, schedule: Q01DX001 (ip), vehicle: saline with Tween-80
  T/C: 113 % of control
dose: 225.0 mg/kg/injection, schedule: Q01DX001 (ip), vehicle: saline with Tween-80
  T/C: 109 % of control

## O=[N+]([O-])c1ccc2c(c1)CCCC2
dose: 100.0 mg/kg/injection, schedule: Q01DX009 (ip), vehicle: other
  T/C: 113 % of control
dose: 100.0 mg/kg/injection, schedule: Q04DX003 (ip), vehicle: other
  T/C: 109 % of control
dose: 200.0 mg/kg/injection, schedule: Q01DX009 (ip), vehicle: other
  T/C: 118 % of control
dose: 200.0 mg/kg/injection, schedule: Q04DX003 (ip), vehicle: other
  T/C: 118 % of control
dose: 400.0 mg/kg/injection, schedule: Q01DX009 (ip), vehicle: other
  T/C: 122 % of control
dose: 400.0 mg/kg/injection, schedule: Q04DX003 (ip), vehicle: other
  T/C: 113 % of control

## CC([OH2+])CNCCN.CC([OH2+])CNCCN.O=[N+]([O-])[O-].[Cu+2] (stereo not drawn)
[5]
  T/C: 110 % of control
[6]
  T/C: 113 % of control

## CC1(C)NC(=O)NC1=O
dose: 100.0 mg/kg/injection, schedule: Q01DX001 (ip), vehicle: saline with Tween-80
  T/C: 100 % of control
dose: 200.0 mg/kg/injection, schedule: Q01DX001 (ip), vehicle: saline with Tween-80
  T/C: 100 % of control
dose: 400.0 mg/kg/injection, schedule: Q01DX001 (ip), vehicle: saline with Tween-80
  T/C: 100 % of control

## O=C(O)CCCOc1cc(Cl)c(Cl)cc1Cl
dose: 50.0 mg/kg/injection, schedule: Q01DX009 (ip), vehicle: gum acacia
  T/C: 107 % of control
dose: 50.0 mg/kg/injection, schedule: Q04DX003 (ip), vehicle: gum acacia
  T/C: 100 % of control
dose: 100.0 mg/kg/injection, schedule: Q01DX009 (ip), vehicle: gum acacia
  T/C: 107 % of control
dose: 100.0 mg/kg/injection, schedule: Q04DX003 (ip), vehicle: gum acacia
  T/C: 104 % of control
dose: 200.0 mg/kg/injection, schedule: Q01DX009 (ip), vehicle: gum acacia
  T/C: 107 % of control
dose: 200.0 mg/kg/injection, schedule: Q04DX003 (ip), vehicle: gum acacia
  T/C: 122 % of control

## ClCCOC(OCCCl)OCCCl
dose: 25.0 mg/kg/injection, schedule: Q01DX009 (ip), vehicle: saline with Tween-80
  T/C: 113 % of control
[7]
  T/C: 109 % of control
[8]
  T/C: 95 % of control

## CC(=O)[O][Hg][c]1c(C)c(C)cc(C)c1C
[5]
  T/C: 108 % of control
[6]
  T/C: 121 % of control

## N#CCCCn1nnc(-c2ccccc2)n1
[7]
  T/C: 100 % of control
[9]
  T/C: 108 % of control

## CC(C1CCC/C(=N\NC(N)=O)C1)[N+](=O)[O-] (stereo not drawn)
dose: 0.19 mg/kg/injection, schedule: Q01DX009 (ip), vehicle: saline with Tween-80
  T/C: 103 % of control
dose: 0.39 mg/kg/injection, schedule: Q01DX009 (ip), vehicle: saline with Tween-80
  T/C: 101 % of control and 102 % of control and 119 % of control
dose: 0.78 mg/kg/injection, schedule: Q01DX009 (ip), vehicle: saline with Tween-80
  T/C: 95 % of control and 99 % of control
dose: 1.56 mg/kg/injection, schedule: Q01DX009 (ip), vehicle: saline with Tween-80
  T/C: 96 % of control and 100 % of control and 109 % of control
dose: 3.12 mg/kg/injection, schedule: Q01DX009 (ip), vehicle: saline with Tween-80
  T/C: 93 % of control and 108 % of control and 113 % of control
dose: 6.25 mg/kg/injection, schedule: Q01DX009 (ip), vehicle: saline with Tween-80
  T/C: 92 % of control and 94 % of control

## CC(=O)OCC1OC(n2cnc3c(=S)nc[nH]c32)C(OC(C)=O)C1OC(C)=O (stereo not drawn)
[9]
  T/C: 118 % of control
[10]
  T/C: 109 % of control
[11]
  T/C: 90 % of control

## N#CC(C#N)C1c2ccccc2C([N+](=O)[O-])c2ccccc21 (stereo not drawn)
[9]
  T/C: 112 % of control
[10]
  T/C: 116 % of control
[11]
  T/C: 112 % of control

## CCOC(=O)NC1CCC2c3ccccc3C([N+](=O)[O-])(C1)c1ccccc12 (stereo not drawn)
dose: 50.0 mg/kg/injection, schedule: Q04DX003 (ip), vehicle: saline with Tween-80
  T/C: 100 % of control
[8]
  T/C: 104 % of control
[12]
  T/C: 100 % of control

## COc1ccc(CNCCc2ccc(O)c(OC)c2)cc1O
[7]
  T/C: 100 % of control
[9]
  T/C: 102 % of control
[10]
  T/C: 107 % of control

## CC(C)c1ccccc1OS(=O)(=O)c1c(F)c(F)c(F)c(F)c1F
dose: 6.25 mg/kg/injection, schedule: Q01DX001 (ip), vehicle: saline with Tween-80
  T/C: 104 % of control
dose: 12.5 mg/kg/injection, schedule: Q01DX001 (ip), vehicle: saline with Tween-80
  T/C: 109 % of control
dose: 25.0 mg/kg/injection, schedule: Q01DX001 (ip), vehicle: saline with Tween-80
  T/C: 118 % of control

## CCOC(=O)CN1CCC2CC1c1c([nH]c3ccccc13)C21OCCO1 (stereo not drawn)
dose: 0.06 mg/kg/injection, schedule: Q01DX009 (ip), vehicle: saline
  T/C: 105 % of control
dose: 0.12 mg/kg/injection, schedule: Q01DX009 (ip), vehicle: saline
  T/C: 95 % of control
dose: 0.25 mg/kg/injection, schedule: Q01DX009 (ip), vehicle: saline
  T/C: 100 % of control
dose: 0.5 mg/kg/injection, schedule: Q01DX009 (ip), vehicle: saline
  T/C: 105 % of control
dose: 1.0 mg/kg/injection, schedule: Q01DX009 (ip), vehicle: saline
  T/C: 105 % of control
dose: 2.0 mg/kg/injection, schedule: Q01DX009 (ip), vehicle: saline
  T/C: 100 % of control
dose: 8.0 mg/kg/injection, schedule: Q01DX009 (ip), vehicle: saline
  T/C: 98 % of control
dose: 16.0 mg/kg/injection, schedule: Q01DX009 (ip), vehicle: saline
  T/C: 102 % of control
dose: 32.0 mg/kg/injection, schedule: Q01DX009 (ip), vehicle: saline
  T/C: 104 % of control

## CC(=O)Oc1ccc(OC(C)=O)c2c1CC(C)=C(C)C2
[13]
  T/C: 107 % of control
[14]
  T/C: 113 % of control
[4]
  T/C: 109 % of control
dose: 200.0 mg/kg/injection, schedule: Q01DX009 (ip), vehicle: saline
  T/C: 109 % of control
[15]
  T/C: 116 % of control
dose: 400.0 mg/kg/injection, schedule: Q01DX009 (ip), vehicle: saline
  T/C: 118 % of control

## IP(c1ccccc1)(c1ccccc1)(c1ccccc1)N1C2CCCCC21 (stereo not drawn)
dose: 0.07 mg/kg/injection, schedule: Q01DX009 (ip), vehicle: saline
  T/C: 104 % of control and 113 % of control
dose: 0.15 mg/kg/injection, schedule: Q01DX009 (ip), vehicle: saline
  T/C: 150 % of control and 156 % of control
dose: 0.23 mg/kg/injection, schedule: Q04DX003 (ip), vehicle: saline
  T/C: 109 % of control
dose: 0.31 mg/kg/injection, schedule: Q01DX009 (ip), vehicle: saline
  T/C: 150 % of control
dose: 0.46 mg/kg/injection, schedule: Q04DX003 (ip), vehicle: saline
  T/C: 118 % of control
dose: 0.6 mg/kg/injection, schedule: Q01DX009 (ip), vehicle: saline
  T/C: 166 % of control
dose: 0.62 mg/kg/injection, schedule: Q04DX003 (ip), vehicle: saline
  T/C: 113 % of control
dose: 0.93 mg/kg/injection, schedule: Q04DX003 (ip), vehicle: saline
  T/C: 118 % of control
dose: 1.2 mg/kg/injection, schedule: Q01DX009 (ip), vehicle: saline
  T/C: 156 % of control

## Nc1ccc(CCCCc2ccc(Cl)cc2Cl)cc1
[6]
  T/C: 95 % of control
[13]
  T/C: 95 % of control
[14]
  T/C: 95 % of control
[4]
  T/C: 104 % of control
dose: 150.0 mg/kg/injection, schedule: Q01DX009 (ip), vehicle: saline
  T/C: 109 % of control
[15]
  T/C: 100 % of control

## COc1ccc(CC(Cc2ccc(OC)c(OC)c2)NC=O)cc1OC
[9]
  T/C: 99 % of control
[8]
  T/C: 101 % of control
[10]
  T/C: 91 % of control
[12]
  T/C: 102 % of control
[11]
  T/C: 87 % of control
dose: 400.0 mg/kg/injection, schedule: Q04DX003 (ip), vehicle: saline with Tween-80
  T/C: 116 % of control
